Among the data in patent publication US10913727B2, “Modulators of the integrated stress pathway” (Calico Life Sciences LLC, priority 2016, dated 2021) are EC50 values, retold here.

In this assay the test system is HEK293T cells carrying the ATF4 luciferase reporter. The assay is described as follows: ATF4-Luc assay, in vitro model of Vanishing Cell White Matter Disease (VWMD). The class given is cell-based. The settings on record: Homo sapiens, HEK-293T, 1 μg/mL tunicamycin, 7 hours, One Glo luminescence. In outline:
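Stable HEK293T line with human ATF4 5′-UTR–firefly luciferase reporter treated with 1 μg/mL tunicamycin plus 200 nM compound for 7 h. Luminescence read; EC50 derived.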
Usually EC50 stands for the concentration at which the effect is half-maximal. For the compound `O=C(COc1ccc(Cl)c(F)c1)NC12CCC(NC(=O)c3cnccn3)(CC1)C[C@@H]2O` [Compound 670, N-{(3S)-4-[2-(4-chloro-3-fluorophenoxy)acetamido]-3-hydroxybicyclo[2.2.2]octan-1-yl}pyrazine-2-carboxamide], the EC50 was less than 50 nM.

Take `O=C(COc1ccc(Cl)c(F)c1)NC12CCC(NC(=O)c3cc(C(F)F)no3)(CC1)C[C@@H]2O` [Compound 671, N-{(3S)-4-[2-(4-chloro-3-fluorophenoxy)acetamido]-3-hydroxybicyclo[2.2.2]octan-1-yl}-3-(difluoromethyl)-1,2-oxazole-5-carboxamide]: the EC50 was less than 50 nM.

Consider `Cc1ncc(C(=O)NC23CCC(NC(=O)COc4ccc(Cl)c(F)c4)(CC2)[C@@H](O)C3)nc1C` [Compound 672, N-{(3S)-4-[2-(4-chloro-3-fluorophenoxy)acetamido]-3-hydroxybicyclo[2.2.2]octan-1-yl}-5,6-dimethylpyrazine-2-carboxamide], for which the EC50 fell in the range of 50 to 250 nM.

As for `Cc1nc(C(=O)NC23CCC(NC(=O)COc4ccc(Cl)c(F)c4)(CC2)[C@@H](O)C3)n[nH]1` [Compound 673, N-{(3S)-4-[2-(4-chloro-3-fluorophenoxy)acetamido]-3-hydroxybicyclo[2.2.2]octan-1-yl}-5-methyl-1H-1,2,4-triazole-3-carboxamide], the EC50 fell in the range of 50 to 250 nM.

`CCc1ncc(C(=O)NC23CC(NC(=O)COc4ccc(Cl)c(Cl)c4)(C2)C3)o1` [Compound 674, N-{3-[2-(3,4-dichlorophenoxy)acetamido]bicyclo[1.1.1]pentan-1-yl}-2-ethyl-1,3-oxazole-5-carboxamide]: the EC50 was less than 50 nM.

As for `Cc1ncc(C(=O)NC23CC(NC(=O)COc4ccc(Cl)c(Cl)c4)(C2)C3)o1` [Compound 675, N-{3-[2-(3,4-dichlorophenoxy)acetamido]bicyclo[1.1.1]pentan-1-yl}-2-methyl-1,3-oxazole-5-carboxamide], the EC50 lay within 50 to 250 nM.

Consider `O=C(COc1ccc(Cl)c(Cl)c1)NC12CC(NC(=O)c3csc(C(F)(F)F)n3)(C1)C2` [Compound 676, N-{3-[2-(3,4-dichlorophenoxy)acetamido]bicyclo[1.1.1]pentan-1-yl}-2-(trifluoromethyl)-1,3-thiazole-4-carboxamide], for which the EC50 is less than 50 nM.

In the case of `Cc1cc(C(=O)NC23CC(NC(=O)COc4ccc(Cl)c(F)c4)(C2)C3)ns1` [Compound 677, N-{3-[2-(4-chloro-3-fluorophenoxy)acetamido]bicyclo[1.1.1]pentan-1-yl}-5-methyl-1,2-thiazole-3-carboxamide], the EC50 fell in the range of 250 to 1000 nM.

With `Cc1nccnc1NC12CC(NC(=O)COc3ccc(Cl)c(F)c3)(C1)C2` [Compound 678, 2-(4-chloro-3-fluorophenoxy)-N-{3-[(3-methylpyrazin-2-yl)amino]bicyclo[1.1.1]pentan-1-yl}acetamide], the EC50 fell in the range of 1000 to 2000 nM.

As to `Cc1cc(C(=O)NC23CCC(NC(=O)COc4ccc(Cl)c(F)c4)(CC2)[C@@H](O)C3)sn1` [Compound 679, N-{(3S)-4-[2-(4-chloro-3-fluorophenoxy)acetamido]-3-hydroxybicyclo[2.2.2]octan-1-yl}-3-methyl-1,2-thiazole-5-carboxamide], the EC50 was less than 50 nM.

Take `O=C(COc1ccc(Cl)c(F)c1)NC12CCC(NC(=O)c3cc(CO)ccn3)(CC1)C[C@@H]2O` [Compound 680, N-{(3S)-4-[2-(4-chloro-3-fluorophenoxy)acetamido]-3-hydroxybicyclo[2.2.2]octan-1-yl}-4-(hydroxymethyl)pyridine-2-carboxamide]: the EC50 is less than 50 nM.

As to `O=C(COc1ccc(Cl)c(F)c1)NC12CCC(NC(=O)c3cccc(F)c3)(CC1)C[C@@H]2O` [Compound 681, N-{(3S)-4-[2-(4-chloro-3-fluorophenoxy)acetamido]-3-hydroxybicyclo[2.2.2]octan-1-yl}-3-fluorobenzamide], the EC50 is less than 50 nM.

As for `O=C(COc1ccc(Cl)c(F)c1)NC12CCC(NC(=O)c3ccc(OC(F)(F)F)cn3)(CC1)C[C@@H]2O` [Compound 682, N-{(3S)-4-[2-(4-chloro-3-fluorophenoxy)acetamido]-3-hydroxybicyclo[2.2.2]octan-1-yl}-5-(trifluoromethoxy)pyridine-2-carboxamide], the EC50 is less than 50 nM.

For `O=C(COc1ccc(Cl)c(F)c1)NC12CCC(NC(=O)c3ccns3)(CC1)C[C@@H]2O` [Compound 683, N-{(3S)-4-[2-(4-chloro-3-fluorophenoxy)acetamido]-3-hydroxybicyclo[2.2.2]octan-1-yl}-1,2-thiazole-5-carboxamide], the EC50 was less than 50 nM.

For the compound `Cc1ccc(C(=O)NC23CC(NC(=O)COc4ccc(Cl)c(F)c4)(C2)C3)c(C)n1` [Compound 684, N-{3-[2-(4-chloro-3-fluorophenoxy)acetamido]bicyclo[1.1.1]pentan-1-yl}-2,6-dimethylpyridine-3-carboxamide], the concentration giving a half-maximal response (EC50) is 1000 to 2000 nM.

As for `O=C(COc1ccc(Cl)c(Cl)c1)NC12CC(NC(=O)c3ccc(Cl)c(F)c3)(C1)C2` [Compound 685, 4-chloro-N-{3-[2-(3,4-dichlorophenoxy)acetamido]bicyclo[1.1.1]pentan-1-yl}-3-fluorobenzamide], the EC50 was less than 50 nM.

For `O=C(COc1ccc(Cl)c(F)c1)NC12CC(NC(=O)c3ccc(Cl)cn3)(C1)C2` [Compound 686, 5-chloro-N-{3-[2-(4-chloro-3-fluorophenoxy)acetamido]bicyclo[1.1.1]pentan-1-yl}pyridine-2-carboxamide], the EC50 is less than 50 nM.

In the case of `Cc1ccc(C(=O)NC23CC(NC(=O)COc4ccc(Cl)c(Cl)c4)(C2)C3)c(C)n1` [Compound 687, N-{3-[2-(3,4-dichlorophenoxy)acetamido]bicyclo[1.1.1]pentan-1-yl}-2,6-dimethylpyridine-3-carboxamide], the EC50 was 250 to 1000 nM.

As for `Cc1cncc(NC23CC(NC(=O)COc4ccc(Cl)c(F)c4)(C2)C3)n1` [Compound 688, 2-(4-chloro-3-fluorophenoxy)-N-{3-[(6-methylpyrazin-2-yl)amino]bicyclo[1.1.1]pentan-1-yl}acetamide], the EC50 is greater than 2000 nM.

Consider `O=C(COc1ccc(Cl)c(F)c1)NC12CC(NC(=O)c3cc4ccccn4c3)(C1)C2` [Compound 689, N-{3-[2-(4-chloro-3-fluorophenoxy)acetamido]bicyclo[1.1.1]pentan-1-yl}indolizine-2-carboxamide], for which the EC50 lay in the range of 50 to 250 nM.

`O=C(COc1ccc(Cl)c(F)c1)NC12CC(NC(=O)c3cnc4ccnn4c3)(C1)C2` [Compound 690, N-{3-[2-(4-chloro-3-fluorophenoxy)acetamido]bicyclo[1.1.1]pentan-1-yl}pyrazolo[1,5-a]pyrimidine-6-carboxamide]: the EC50 lay within 250 to 1000 nM.

`O=C(COc1ccc(Cl)c(F)c1)NC12CC(NC(=O)c3ccc(Cl)c(F)c3)(C1)C2` [Compound 692, 4-chloro-N-{3-[2-(4-chloro-3-fluorophenoxy)acetamido]bicyclo[1.1.1]pentan-1-yl}-3-fluorobenzamide]: the EC50 is 50 to 250 nM.

Take `Cc1cc(C(=O)NC23CC(NC(=O)COc4ccc(Cl)c(Cl)c4)(C2)C3)cnc1C` [Compound 693, N-{3-[2-(3,4-dichlorophenoxy)acetamido]bicyclo[1.1.1]pentan-1-yl}-5,6-dimethylpyridine-3-carboxamide]: the EC50 was in the range of 250 to 1000 nM.
